Reference: patent publication US20230271949A1, “GLP-1R MODULATING COMPOUNDS” (ASCLETIS BIOSCIENCE CO., LTD., priority 2022, published 2023)

Molecular target: GLP-1R (Homo sapiens, UniProt P43220)
Test: GLP-1R agonist cAMP stimulation assay (HTRF cAMP)
Format: cell-based
Conditions: HEK293 cell line expressing GLP-1 target; HTRF cAMP agonist mode, 30 min at RT
Procedure: cAMP Detection Kit, Cisbio (Cat #62AM4PEJ)
The cell line was constructed by WuXi.
2. Methods • a) The compound source plate preparation: • The reference 7-37 was diluted from 500 nM, 4-fold, 10 points in DMSO using Bravo. The compounds were diluted from […], 3-fold, 10 points in DMSO using Bravo. • b) Transfer of compounds: • 1) Use Echo transfer 100 nL cpd to the OptiPlate-384 plate. • 2) Spin the plates at 1000 rpm for 5 sec. • c) Cell suspension preparation: • 1) Thaw 1 vial of GLP-1 cells rapidly in 37° C. water bath. • 2) Transfer cell suspension into 10 ml of HBSS in a 15 ml conical tube. • 3) Centrifuge cells at 1000 rpm for 5 min at room temperature to pellet cells • 4) Gently aspirate supernatant being careful not to aspirate cells. • 5) Flick pellet to loose cells and re-suspend the cell pellet in 10 ml HBSS. Use a sterile pipette to pipette up and down to dislodge clumps. • 6) Count cells for concentration and to determine cell viability on Vi-cell. • 7) Re-suspend the GLP-1 cells in assay buffer at a concentration of 1.0×E5/mL cells. • 8) Transfer 10 μL GLP-1 cells to OptiPlate-384 plate. • d) HTRF cAMP Assay for agonist: • 1) Incubate the plate at RT for 30 min before adding the detection reagent. • 2) Add 10 μL each of detection reagent using Electric Multiple Channel Pipette. • 3) Cover the 384 plate with TopSeal-A film and incubate for 60 minutes at room temperature. • Remove the TopSeal-A, read on EnVision.
Create a new log (Inhibitor) vs response—Variable slope mode in Prism5.0 software, substitute the standard curve concentration (x) and its corresponding 665/615 data (y) into the model, convert the standard curve concentration (abscissa) by x=log(x), and make the standard curve through the converted xy.
Transform the data of 665/615 in the whole plate into a column of data, substitute it into y in the table of standard curve concentration (x) and 665/615 data (y), copy the x (interpolatedx) corresponding to automatic conversion by the software into a table, convert it into cAMP level by the formula x=10^(x), and reset the data into 384 distribution.
% Activity=(cAMP level−LC)/(HC−LC)*100% • Z factor: 1-3*(STD_HC+[…])/(HC-LC) • Assay Window: HC/LC • LC: The average cAMP level of adding DMSO wells • HC: The average cAMP level of adding the top concentration of reference compounds wells.
Create a new […] in Prism5.0 software, substitute the sample concentration (x) and its corresponding % Activity data (y) into the model, convert the standard curve concentration (abscissa) to x=log(x), and make the sample curve through the converted xy.

Sequence of GLP-1R (P43220 24-463): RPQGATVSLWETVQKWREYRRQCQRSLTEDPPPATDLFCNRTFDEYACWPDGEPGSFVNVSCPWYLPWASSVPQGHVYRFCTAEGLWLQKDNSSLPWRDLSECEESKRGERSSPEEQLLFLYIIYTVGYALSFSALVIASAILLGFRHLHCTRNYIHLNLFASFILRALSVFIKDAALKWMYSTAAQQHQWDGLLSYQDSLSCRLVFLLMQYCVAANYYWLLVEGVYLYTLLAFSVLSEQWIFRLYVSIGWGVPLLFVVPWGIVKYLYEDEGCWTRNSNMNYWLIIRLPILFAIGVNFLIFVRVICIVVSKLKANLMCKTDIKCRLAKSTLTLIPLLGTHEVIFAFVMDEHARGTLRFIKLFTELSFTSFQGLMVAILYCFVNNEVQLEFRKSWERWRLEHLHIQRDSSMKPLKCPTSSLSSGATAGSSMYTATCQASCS

| SMILES | EC50 [nM] |
| --- | --- |
| Cn1cc2cc(NC(=O)c3ccc4c(c3)nc(CN3CCC(c5cccc(OCc6ccc(Cl)cc6F)n5)CC3)n4C[C@@H]3CCO3)ccc2n1 [Compound 99] | 42.4 |
| Cc1cc(NC(=O)c2ccc3c(c2)nc(CN2CC=C(c4cccc(OCc5ccc(C#N)cc5F)n4)CC2)n3C[C@@H]2CCO2)cc2c(C(F)F)n[nH]c12 [Compound 183] | 0.76 |
| O=C(Nc1ccc2nc(CN3CC=C(c4cccc(OCc5ccc(Cl)cc5F)n4)CC3)n(C[C@@H]3CCO3)c2c1)c1ccc2c(c1)C1(CC1)C(=O)N2 [Compound 281] | 1.21 |
| CC1(c2ccc(Cl)cc2F)Oc2cccc(-c3cc(F)c(Cc4nc5cc(NC(=O)c6cc(F)c7c(c6)C(C6CC6)C(=O)N7)ccc5n4C[C@@H]4CCO4)c(F)c3)c2O1 (stereo partly drawn) [Compound 326] | 0.64 |
| Cc1cc(NC(=O)c2ccc3c(c2)nc(CN2CC=C(c4cccc(OCc5ccc(C#N)cc5F)n4)CC2)n3C[C@@H]2CCO2)cc2c(C3CC3)n[nH]c12 [Compound 185] | 1.32 |
| CCc1n[nH]c2ccc(C(=O)Nc3ccc4c(c3)nc(C3CC35CCN(c3cccc(OCc6ccc(Cl)cc6F)n3)CC5)n4CC3CCO3)cc12 (stereo not drawn) [Compound 250] | 1.49 |
| Cc1n[nH]c2ncc(C(=O)Nc3ccc4c(c3)nc(CN3CC=C(c5cccc(OCc6ccc(C#N)cc6F)n5)CC3)n4C[C@@H]3CCO3)cc12 [Compound 234] | 3.87 |
| CCn1cncc1Cn1c(CN2CC=C(c3cccc4c3OC(C)(c3ccc(Cl)cn3)O4)CC2)nc2cc(NC(=O)c3cc(F)c4[nH]nc(C)c4c3)ccc21 (stereo not drawn) [Compound 410] | 0.31 |
| Cc1n[nH]c2c(F)cc(NC(=O)c3ccc4nc(CN5CC=C(c6cccc(OCc7ccc(Cl)cc7F)n6)CC5)n(CC5CCO5)c4c3)cc12 (stereo not drawn) [Compound 262] | 3.12 |
| COCCn1c(CN2CCC(c3cccc(OCc4ccc(Cl)cc4F)n3)CC2)nc2cc(C(=O)NCc3ccccc3O)ccc21 [Compound 35] | > 10000 |
| Fc1cc(Cl)ccc1COc1cccc(C2=CCN(Cc3nc4cc(-c5nc(-c6cc(C(F)(F)F)[nH]n6)co5)ccc4n3C[C@@H]3CCO3)CC2)n1 [Compound 398] | 110 |
| O=C(Nc1ccc2c(c1)nc(CN1CC=C(c3cccc(OCc4ccc(Cl)cn4)n3)CC1)n2C[C@@H]1CCO1)c1cc(C(F)(F)F)c2c(c1)C1(CC1)C(=O)N2 [Compound 211] | 1.02 |
| O=C(Nc1ccc2c(c1)nc(CN1CC=C(c3cccc(OCc4ccc(Cl)cc4F)n3)CC1)n2C[C@@H]1CCO1)c1ccc2[nH]nc(C(F)(F)F)c2c1 [Compound 215] | 2.11 |
| COCCn1c(CN2CCC(c3cccc(OCc4ccc(Cl)cc4F)n3)CC2)nc2cc(C(=O)NCC(CC(=O)O)c3ccccc3)ccc21 (stereo not drawn) [Compound 41] | 376 |
| Cc1cc(C(=O)Nc2ccc3c(c2)nc(CN2CCC(c4cccc5c4OC(C)(c4ccc(Cl)cc4F)O5)CC2)n3C[C@@H]2CCO2)cc2[nH]c(=O)[nH]c12 (stereo partly drawn) [Compound 345] | 0.21 |
| COCCn1c(CN2CCC(c3cccc(OCc4ccc(Cl)cc4F)n3)CC2)nc2cc(C(=O)NCc3ccc(O)c(C(=O)O)c3)ccc21 [Compound 37] | 106 |
| COCCn1c(CN2CCC(c3cccc(OCc4ccc(Cl)cc4F)n3)CC2)nc2cc(C(=O)NCC(=O)c3ccc(O)c(O)c3)ccc21 [Compound 42] | > 10000 |
| Cc1n[nH]c2c(F)cc(C(=O)Nc3ccc4c(c3)nc(C(F)(F)N3CC=C(c5cccc(OCc6ccc(Cl)cc6F)n5)CC3)n4C[C@@H]3CCO3)cc12 [Compound 255] | 0.32 |
| Cc1cc(C(=O)Nc2ccc3c(c2)nc(CN2CC=C(c4cccc(OCc5ccc(Cl)cc5F)n4)CC2)n3C[C@@H]2CCO2)cc2c1NC(=O)C21CC1 [Compound 209] | 0.32 |
| CC1(c2ccc(Cl)cc2F)Oc2cccc(C3=CCN(Cc4nc5cc(C(=O)Nc6ccc7[nH]nc(C8CC8)c7c6)ccc5n4CC4CCO4)CC3)c2O1 (stereo not drawn) [Compound 294] | 1.02 |
| Cc1n[nH]c2cc(F)c(C(=O)Nc3ccc4c(c3)nc(CN3CC=C(c5cccc(OCc6ccc(Cl)cc6F)n5)CC3)n4C[C@@H]3CCO3)cc12 [Compound 221] | 2.13 |
